How the values were obtained:
[1] = test system: red blood cells isolated from sickle cell patients; experiment: Na2S2O5-induced sickling of sickle erythrocytes; assay type: cell-based, human
Method: To examine sickling, a wet preparation of red blood cells (as opposed to a dried smear) was made by placing blood under a coverslip on a glass slide. The slide was placed under a light microscope, and the number of cells displaying sickled morphology was counted. Na2S2O5 was used to increase the rate of sickling.
When EDTA-anticoagulated peripheral blood from a sickle cell patient was preincubated with calpastat for 10 minutes prior to exposure to sodium metabisulfite (Na2S2O5), there was a significant delay (about 30 minutes) in sickling.
In a second experiment, the effect of calpastat on recovery from sickling was measured. Blood from the same patient was incubated with Na2S2O5, for two hours in a microfuge tube. The supernatant plasma was then removed from the settled erythrocytes and the erythrocytes were diluted in four volumes of saline. The washed erythrocytes were then incubated in saline, and Wright-Giemsa stained smears were made 60 minutes following the washout of Na2S2O5.

[2] = test system: platelet rich plasma (PRP); experiment: Platelet disk-to-sphere shape change after cold storage (ESC assay); assay type: cell-based; design: cold storage of PRP, extent of shape change (ESC): dose or concentration left out as unconfirmed
Method: Disk-to-sphere shape change was then assayed using the extent of shape change (ESC) assay (Holme et al., Transfusion 38:31-40, 1998). Briefly, samples of stored PRP were treated to induce disk-to-sphere shape change by cold storage and the addition of EDTA (to prevent aggregation). ADP was then added as a stimulus to measure ESC, and shape change was measured by determining light transmission through the sample. If the initial storage conditions caused considerable disk-to-sphere shape change, there would be little additional shape change upon addition of EDTA and ADP. Conversely, if the initial storage conditions caused little disk-to-sphere shape change, there would be considerable additional shape change upon addition of EDTA and ADP. The results of three experiments in which 24 hour storage of platelets at 4° C. was tested, in the presence and absence of calpastat, are shown in FIG. 12. The bracket labelled “fresh CDP” indicates the ESC that can be expected for fresh PRP in CPD, and the bracket marked “cold EDTA-treated PRP” indicates the ESC that can be expected for PRP subjected to cold storage in EDTA.
The day O control is an assay performed on fresh PRP with no cold storage in standard buffer.

[3] = sixty minutes following Na2S2O5 washout

Substance: H-AAVALLPAVLLALLAPEKLGERDDTIPPEYRELLEKKTGV-OH [Calpastat]
- final percentage of sickled cells ([1]; Na2S2O5): no detectable difference
- delay in sickling ([1]; preincubated 10 minutes prior to Na2S2O5): about 30 minutes
- percentage of discocytes compared to S-TIPPEY-ala-treated cells [1, 3]: two-fold greater
- percentage of sickled cells compared to S-TIPPEY-ala-treated cells [1, 3]: two-fold lower
- cold storage of PRP, extent of shape change (ESC) ([2]; about 24 hours at 4° C., compared to EDTA): significantly improved cold storage
- protection against disk-to-sphere shape change ([2]; five days at 4° C.): considerable protection

— US6867186B2, “Cell-permeable protein inhibitors of calpain” (New England Medical Center Hospital, priority 1997, dated 2005)
